Test [1] deals with palmitoyl-protein thioesterase 1 (PPT1). Description: PPT1 enzyme activity in MEF lysates. The format is cell-based, mouse. Particulars: wild type, DIV7.
Procedure: Wild type (WT) and mutant cells were treated with vehicle or AF38469 (40 nM). Cells were plated on day 0 and dosed with drug-containing media on DIV3 and DIV5. Cells were lysed, and protein quantification and enzyme activity assay were performed on DIV7. Data was analyzed with GraphPad Prism™. Two-way ANOVA. Mean±S.E.M. Tukey's multiple comparisons test. *p<0.05, **p<0.01, ***p<0.001, ****p<0.0001.
A further test relates to Cln3^Δex7/8 mice. Description: Astroglial activation (GFAP) in brain of Cln3^Δex7/8 mice. The test is classed as in vivo, mouse. On the procedure: FIG. 22(A-B). Short-term chronic treatment with semaglutide impacts glial activation in Cln3^Δex7/8 mice. Beginning at wean, wild type and Cln3^Δex7/8 mice were treated with vehicle or semaglutide 2.571 μg/mouse, 25.71 μg/mouse) through subcutaneous injections three times a week until sacrifice at 16 weeks. Upon sacrifice, a hemisphere of the brain was sectioned at 50 microns on a vibratome; DAB staining immunohistochemistry was then performed using anti-GFAP (Dako, Z0334; 1:5000), anti-CD68 (AbD Serotec, MCA1957; 1:2000), anti-rabbit biotinylated (Vector Labs, BA-1000 1:1000), and anti-rat (Vector Labs, BA-9400 1:1000). Sections were imaged and analyzed using an Aperio Digital Pathology Slide Scanner (AT2) and associated software. Images were extracted from S1BF of the somatosensory cortex, the CA3 of the hippocampus, and the VPM/VPL of the thalamus, key brain regions for Batten disease pathology. Percent area of immunoreactivity were quantified using a threshold analysis in ImageJ™. Statistical analyses were performed using GraphPad Prism™ (v8.4.3; San Diego, CA). […] Increasing concentrations of semaglutide and corresponding genotypes are shown along the x-axis. Nested one-way ANOVA. Mean±S.E.M. Sidak's multiple comparisons test. Compared to the wild type vehicle treated group #p<0.05, ##p<0.01, ###p<0.001, ####p<0.0001. Compared to mutant vehicle treated group *p<0.05, **p<0.01, ***p<0.001, ****p<0.0001.
Specific experimental details are included in figure legends. In general, after collection and preparation, MEFs and PNCs were dosed with vehicle or AF38469 (40 nM, 400 nM. or 4 μM) on DIV3 and DIV5. On DIV7, cells were treated with the following dyes: Hoechst 33342 (1:1000 dilution), LysoTrackerT™ Red DND-99 (1:10,000 dilution), fixed, and imaged. Mice were given vehicle or AF38469 (78.125 μg/ml, 3.125 μg/ml, 0.3125 μg/ml or 0.03125 μg/ml equating approximately to 250 μg/mouse/day, 10 μg/mouse/day, 1 μg/mouse/day, and […], respectively, given a mouse's daily water intake of approximately 3.2 ml per day) in drinking water beginning at wean. Body weight was measured bi-weekly, and a force actimeter test was performed on Cln2^R207X mice at 10 weeks of age. Body weight was measured every month for Cln3^Δex7/8 mice. At 11 and 16 weeks of age, respectively, Cln2^R207X and Cln3^Δex7/8 mice along with age matched wild type control mice were CO2 euthanized and intracardially perfused with PBS. Brains were collected and placed on a 1 mm sagittal brain block. Brains were sliced at the midline and 3 mm right of the midline. One hemisphere was fixed in 4% PFA and sectioned at 50 microns on a vibratome. Immunohistochemistry was performed on free-floating sections. For mitochondrial ATP synthase subunit C (SubC), glial fibrillary acidic protein (GFAP), and cluster of differentiation 68 (CD68) immunolabeling, primary antibodies included anti-SubC (Abcam, ab181243; 1:1000), anti-GFAP (Dako, Z0334; 1:5000), anti-CD68 (AbD Serotec, MCA1957; 1:2000), and secondary antibodies included anti-rabbit biotinylated (Vector Labs, BA-1000 1:1000) and anti-rat (Vector Labs, BA-9400 1:1000). Coverslips were mounted on slides using antifade-mounting media and were stored in the dark before imaging. Sections were imaged and analyzed using an Aperio Digital Pathology Slide Scanner (AT2) and associated software. Images were extracted from S1BF of the somatosensory cortex and the VPM/VPL of the thalamus, with multiple images taken of multiple tissues from each animal.
Short-term chronic treatment with AF38469 impacts glial activation in Cln3^Δex7/8 mice. Beginning at wean, wild type and Cln3^Δex7/8 mice were treated with vehicle (0.2408% DMSO) or AF38469 (0.03125 μg/ml, 0.3125 μg/ml, 3.125 μg/ml, 78.125 μg/ml) continuously through the drinking water continuing until sacrifice at 16 weeks. […]

“Also recorded” adds a separate entry of the source.

In the case of `Cc1cccc(NC(=O)c2ccc(C(F)(F)F)cc2C(=O)O)n1` [AF38469, 2-((6-methylpyridin-2-yl)carbamoyl)-5-(trifluoromethyl)benzoic acid], in test [1] (AF38469 40 nM, Cln2^R207X, Cln3^Δex7/8, Cln6^nclf, Cln11^−/− MEFs), the PPT1 enzyme activity entry is recorded as “increased the overall levels of activity; also recorded: significantly increased”. Further, the “astroglial activation (GFAP)” value in the test on Cln3^Δex7/8 mice (0.03125 μg/ml, 0.3125 μg/ml, VPM/VPL of the thalamus) is “significantly and potently decreased”; in the test with Cln3^Δex7/8 mice (0.03125 μg/ml, somatosensory cortex), “significantly decreased”; with Cln3^Δex7/8 mice (AF38469 higher doses 3.125 μg/ml, 78.125 μg/ml, VPM/VPL of the thalamus and somatosensory cortex), “increased or had no impact; also recorded: had no impact”. Moreover, the GFAP reactivity entry in the test on Cln3^Δex7/8 mice (lower doses, somatosensory cortex and the thalamus, summary statement) was “significantly decreased”.

As for `CC[C@H](C)[C@H](N)C(=O)NCCN1CCOCC1` [LM11A-31, N-[2-(morpholin-4-yl)ethyl]-L-isoleucinamide], in test [1] (LM11A-31 100 nM, Cln2^R207X and Cln3^Δex7/8 MEFs), the PPT1 enzyme activity result is “significantly increased”. Further, in the test with Cln3^Δex7/8 mice (LM11A-31 0.6 mg/mL, VPM/VPL of the thalamus and somatosensory cortex), the “astroglial activation (GFAP)” value is given as “decreasing trend; also recorded: trends towards decreased levels; also recorded: had no significant decrease”.

Turning to semaglutide, the PPT1 enzyme activity entry in test [1] (semaglutide 100 nM, Cln2^R207X and Cln3^Δex7/8 MEFs) is on record as “significantly increased”. The “astrocytosis (GFAP)” value with Cln3^Δex7/8 mice (semaglutide 2.571 μg/mouse, 25.71 μg/mouse s.c., S1BF, CA3, VPM/VPL) is “had no significant effect”.

Values taken from US20240197700A1, “Methods and Compositions for Treating Lysosomal Storage Disorders” (Sanford Health, priority 2021, published 2024).
